Laboratory results published in patent US6576642B2, “Diamide compounds and compositions containing the same” (Kowa Co., Ltd., priority 1996, dated 2003).

Tested on: production of IgE antibody
Test: Evaluation of inhibitory effect on production of IgE antibody (mouse spleen B cells cultured with LPS and IL-4, IgE in supernatant by ELISA)
Type: cell-based
Details: test agent at 10^-5 M; mouse (Balb/C) B cells, LPS + mouse IL-4, IgE in culture supernatant by ELISA
Method: Evaluation of inhibitory effect on production of IgE antibody:
A spleen was enucleated from a mouse (Balb/C, male, aged 8 weeks) and shredded in 0.3% BSA/HBSS to prepare single cells by means of a 200-mesh screen. Further, the single cells were hemolyzed by 0.75% ammonium chloride-17 mM Tris solution to prepare a splenocyte suspension (1×10^7/ml) using RPMI 1640 medium/25 mM HEPES/0.3% BSA. After the suspension was reacted with a mouse anti-mouse Thy-1.2 monoclonal antibody (product of Cedarlane Co.) at 4° C. for 1 hour, the reaction mixture was centrifuged, and the sediment cells were suspended again (1×10^7/ml, RPMI/HEPES/BSA). After the suspension was then reacted with a low-cytotoxic rabbit complement (product of Cedarlane Co.) at 37° C. for 1 hour, killed cells were removed by specific gravity centrifugation using lympholyte M (product of Cedarlane Co.) to obtain a B cell fraction as viable cells.
After B cells (10^5/0.2 ml/well) were cultured for a day together with LPS (E. coli 026:B6, product of DIFCO Co.) using a 96-well plate, mouse IL-4 (product of Genzyme Co.) was added to conduct culture further for 7 days.
Each test was added on the first day of the culture, and the amount of IgE in a culture supernatant was meausred by ELISA after the culture, thereby calculating out the inhibitory effect of the agent on the production of an IgE antibody.

| Structure (SMILES) | Inhibitory effect on production of IgE (%) |
| --- | --- |
| COc1cc(/C=C/C=C/C(=O)N[C@@H]2CCCC[C@H]2NC(=O)/C=C/C=C/c2cc(OC)c(OC)c(OC)c2)cc(OC)c1OC (relative stereo) [Example 15, trans-N,N′-bis[5-(3,4,5-trimethoxy-phenyl)penta-(2E,4E)-dienoyl]-1,2-diaminocyclohexane] | 100% |
| COc1cc(/C=C/C=C/C(=O)N(C)CCCCCCN(C)C(=O)/C=C/C=C/c2cc(OC)c(OC)c(OC)c2)cc(OC)c1OC [Example 5, N,N′-bis[5-(3,4,5-trimethoxyphenyl)-penta-(2E,4E)-dienoyl]-N,N′-dimethyl-1,6-diaminohexane] | 90% |
| COc1cc(/C=C/C=C/C(=O)NCc2ccc(CNC(=O)/C=C/C=C/c3cc(OC)c(OC)c(OC)c3)cc2)cc(OC)c1OC [Example 22, N,N′-bis[5-(3,4,5-trimethoxyphenyl)-penta-(2E,4E)-dienoyl]-1,4-bis(aminomethyl)benzene] | 90% |
| COc1cc(/C=C/C=C/C(=O)Nc2ccccc2NC(=O)/C=C/C=C/c2cc(OC)c(OC)c(OC)c2)cc(OC)c1OC [Example 26, N,N′-bis[5-(3,4,5-trimethoxyphenyl)-penta-(2E,4E)-dienoyl]-1,2-diaminobenzene] | 85% |
| COc1cc(/C=C/C=C/C(=O)Nc2cccnc2NC(=O)/C=C/C=C/c2cc(OC)c(OC)c(OC)c2)cc(OC)c1OC [Example 38, 2,3-bis[5-(3,4,5-trimethoxyphenyl)-penta-(2E,4E)-dienoylamino]pyridine] | 80% |
